We go through nine compounds from BindingDB's records for doi:10.1016/j.ejmech.2015.10.016 (University of Groningen, 2015).

SMILES strings stand for the structures.

The target of the assay is T1, Histone acetyltransferase KAT8 (Homo sapiens, UniProt Q9H7Z6).
T1 sequence (Q9H7Z6 whole entry): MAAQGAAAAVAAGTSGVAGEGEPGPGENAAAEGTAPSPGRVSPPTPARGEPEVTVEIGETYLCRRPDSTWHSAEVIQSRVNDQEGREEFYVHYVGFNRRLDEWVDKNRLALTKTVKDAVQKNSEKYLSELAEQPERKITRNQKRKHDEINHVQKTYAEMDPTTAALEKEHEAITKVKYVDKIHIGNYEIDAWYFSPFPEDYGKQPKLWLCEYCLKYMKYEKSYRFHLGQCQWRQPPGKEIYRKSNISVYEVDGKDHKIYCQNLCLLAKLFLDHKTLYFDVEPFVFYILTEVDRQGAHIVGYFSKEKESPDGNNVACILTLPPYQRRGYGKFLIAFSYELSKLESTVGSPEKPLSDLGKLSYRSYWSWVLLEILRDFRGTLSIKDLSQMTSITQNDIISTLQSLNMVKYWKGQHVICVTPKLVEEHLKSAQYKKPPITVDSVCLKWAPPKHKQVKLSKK
Kind of assay: Inhibition of recombinant N-terminal His6-tagged KAT8 (unknown origin) expressed in Escherichia Coli BL21 DE3 cells assessed as reduction of Co A level using histone H4 substrate after 15 mins by CPM fluorescence assay.
For the compound `CC1=NN(c2ccc(C(=O)O)cc2)C(=O)/C1=C/c1ccc(-c2cc(C)c(C)cc2[N+](=O)[O-])o1`, the IC50 – broadly, the concentration needed to halve the response being measured – is above 631 µM.

In the case of `CCCCCc1ccc(O)c(C(=O)O)c1`, the concentration for half-maximal inhibition (IC50) is above 631 µM.

`CCCCCCCCCCc1ccc(O)c(C(=O)O)c1`: the IC50 is 191 µM.

As for `CCCCCCCSCC(=O)c1ccccc1O`, the half-maximal inhibitory concentration (IC50) is above 631 µM.

For the compound `CCCCCCCCCCCCCCCc1ccc(O)c(C(=O)O)c1`, the half-maximal inhibitory concentration (IC50) came out at 263 µM.

With `O=C(O)c1c(O)cccc1CCCCCO`, the IC50 is above 631 µM.

As for `O=C(O)c1c(O)cccc1CCCCCCCCCCCO`, the IC50 turned out to be 525 µM.

`CCCCCc1cccc(O)c1C(=O)O` [6-Pentylsalicylic Acid]: the IC50 is above 631 µM.

As for `CCCCCCCCCCc1cccc(O)c1C(=O)O`, the 50% inhibitory concentration (IC50) was 123 µM.
